Measured values taken from ChEMBL document CHEMBL1201862, “PubChem BioAssay data set” (2004).
Active and inactive are the calls of the source.

Tests used:
[1] = Luminescence Cell-Based Dose Confirmation HTS to Identify Activators of 5'UTR Stem-Loop Driven Alpha-Synuclein mRNA Translation in H4 Neuroglioblastoma Cells. [Related pubchem assays: 1829 (Project Summary), 1814 (Primary HTS)]; type: functional
[2] = Luminescence Cell-Based Dose Response HTS to Identify Activators of Luciferase Translation or Activity in H4 […] Cells. [Related pubchem assays: 1829 (Project Summary), 1814 (Primary HTS)]; type: functional
[3] = test system: H4; assay: Luminescence Cell-Based Dose Response HTS to Identify Activators of 5'UTR Stem-Loop Driven Prion Protein mRNA Translation in H4 Neuroglioblastoma Cells. [Related pubchem assays: 1829 (Project Summary), 1814 (Primary HTS)]; type: functional; conditions: Homo sapiens
[4] = biological target: Potassium voltage-gated channel subfamily KQT member 2 (Rattus norvegicus, UniProt O88943, W236L); assay: potentiation of rat KCNQ2 current – cell-based, automated electrophysiology, mechanism study for KCNQ2 potentiator project, dose response (AID 2603); type: functional
Potassium voltage-gated channel subfamily KQT member 2, sequence (O88943 whole entry W236L): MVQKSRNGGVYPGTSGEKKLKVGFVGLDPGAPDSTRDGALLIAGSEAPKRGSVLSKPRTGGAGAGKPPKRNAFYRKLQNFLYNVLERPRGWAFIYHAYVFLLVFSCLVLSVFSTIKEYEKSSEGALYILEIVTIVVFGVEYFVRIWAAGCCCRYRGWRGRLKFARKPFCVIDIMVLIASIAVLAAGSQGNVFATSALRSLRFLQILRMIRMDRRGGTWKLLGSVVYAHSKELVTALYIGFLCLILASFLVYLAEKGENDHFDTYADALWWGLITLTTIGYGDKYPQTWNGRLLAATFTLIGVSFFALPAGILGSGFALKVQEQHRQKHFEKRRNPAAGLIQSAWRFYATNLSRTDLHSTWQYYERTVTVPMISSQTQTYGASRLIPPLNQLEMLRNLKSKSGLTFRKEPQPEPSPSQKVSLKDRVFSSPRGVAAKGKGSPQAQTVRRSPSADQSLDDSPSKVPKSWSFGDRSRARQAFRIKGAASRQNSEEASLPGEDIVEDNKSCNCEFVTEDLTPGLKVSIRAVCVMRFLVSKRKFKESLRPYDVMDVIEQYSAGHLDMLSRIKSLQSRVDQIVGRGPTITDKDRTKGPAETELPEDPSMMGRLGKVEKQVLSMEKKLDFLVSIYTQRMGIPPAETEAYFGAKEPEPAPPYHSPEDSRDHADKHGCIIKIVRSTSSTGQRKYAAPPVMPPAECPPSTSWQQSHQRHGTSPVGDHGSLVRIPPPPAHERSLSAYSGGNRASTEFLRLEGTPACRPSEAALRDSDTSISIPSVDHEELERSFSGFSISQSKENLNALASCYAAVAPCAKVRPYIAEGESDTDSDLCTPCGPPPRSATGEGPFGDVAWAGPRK

[5] = biological target: T1, Replicative DNA helicase DnaB (Mycobacterium tuberculosis, UniProt P9WMR3); assay: DnaB intein splicing inhibitors, dose response, biochemical, cell-free fluorescence (AID 449749); type: functional
T1 sequence (P9WMR3 whole entry): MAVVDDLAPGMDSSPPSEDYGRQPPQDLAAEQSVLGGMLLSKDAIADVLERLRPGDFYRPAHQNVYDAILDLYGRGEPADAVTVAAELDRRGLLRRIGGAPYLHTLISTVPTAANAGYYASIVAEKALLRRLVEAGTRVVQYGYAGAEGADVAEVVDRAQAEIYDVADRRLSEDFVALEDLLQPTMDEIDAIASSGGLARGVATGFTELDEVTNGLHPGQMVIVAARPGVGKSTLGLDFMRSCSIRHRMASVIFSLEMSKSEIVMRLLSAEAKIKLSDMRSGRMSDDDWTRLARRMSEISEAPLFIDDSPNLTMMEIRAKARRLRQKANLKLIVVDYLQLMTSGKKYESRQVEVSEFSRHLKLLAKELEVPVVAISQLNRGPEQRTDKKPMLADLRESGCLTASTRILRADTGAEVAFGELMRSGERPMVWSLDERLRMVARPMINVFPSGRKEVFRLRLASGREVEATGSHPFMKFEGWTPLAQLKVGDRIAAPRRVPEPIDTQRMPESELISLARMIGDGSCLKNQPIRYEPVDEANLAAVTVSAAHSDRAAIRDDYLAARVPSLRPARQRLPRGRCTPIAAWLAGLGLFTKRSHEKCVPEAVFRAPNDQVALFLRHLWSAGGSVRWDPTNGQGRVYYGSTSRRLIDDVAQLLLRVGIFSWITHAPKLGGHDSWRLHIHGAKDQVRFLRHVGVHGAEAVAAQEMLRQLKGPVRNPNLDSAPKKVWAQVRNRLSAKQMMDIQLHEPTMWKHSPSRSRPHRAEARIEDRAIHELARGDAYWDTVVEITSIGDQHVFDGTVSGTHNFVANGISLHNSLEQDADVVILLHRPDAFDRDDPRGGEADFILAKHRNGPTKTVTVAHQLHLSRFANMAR

[6] = biological target: T2, High affinity choline transporter 1 (Homo sapiens, UniProt Q9GZV3); assay: human choline transporter blockers, potency – cell-based, 5-point CRC, membrane potential dye, dose response (AID 504840); type: functional
T2 sequence (Q9GZV3 whole entry): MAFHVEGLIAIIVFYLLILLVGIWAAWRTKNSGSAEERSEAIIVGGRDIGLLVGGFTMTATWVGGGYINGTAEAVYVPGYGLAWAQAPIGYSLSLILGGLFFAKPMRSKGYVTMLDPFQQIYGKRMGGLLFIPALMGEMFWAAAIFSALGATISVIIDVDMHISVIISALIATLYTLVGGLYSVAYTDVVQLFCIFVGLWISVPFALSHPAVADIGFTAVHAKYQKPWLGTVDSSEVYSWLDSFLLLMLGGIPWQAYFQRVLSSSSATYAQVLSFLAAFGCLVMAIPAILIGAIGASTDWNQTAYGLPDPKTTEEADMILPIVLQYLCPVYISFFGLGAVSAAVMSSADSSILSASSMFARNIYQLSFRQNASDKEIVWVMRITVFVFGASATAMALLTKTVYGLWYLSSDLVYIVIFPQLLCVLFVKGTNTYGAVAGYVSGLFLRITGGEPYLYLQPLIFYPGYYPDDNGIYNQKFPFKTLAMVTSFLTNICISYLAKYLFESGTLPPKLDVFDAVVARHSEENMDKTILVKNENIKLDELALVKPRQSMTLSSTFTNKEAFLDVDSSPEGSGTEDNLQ

[7] = test system: Vero; assay: viability of Vero cells under compound – cytotoxicity control for flavivirus capping enzyme inhibitors (AID 588742); type: functional; conditions: Chlorocebus sabaeus
[8] = biological target: T3, Protein RecA (Mycobacterium tuberculosis, UniProt P9WHJ3); assay: Fluorescence Cell-Free Homogeneous Dose Retest to Identify Inhibitors of RecA-Intein Splicing Activity. [Related pubchem assays (depositor defined):AID2097, AID2223, AID489010, AID492950]; type: functional
T3 sequence (P9WHJ3 whole entry): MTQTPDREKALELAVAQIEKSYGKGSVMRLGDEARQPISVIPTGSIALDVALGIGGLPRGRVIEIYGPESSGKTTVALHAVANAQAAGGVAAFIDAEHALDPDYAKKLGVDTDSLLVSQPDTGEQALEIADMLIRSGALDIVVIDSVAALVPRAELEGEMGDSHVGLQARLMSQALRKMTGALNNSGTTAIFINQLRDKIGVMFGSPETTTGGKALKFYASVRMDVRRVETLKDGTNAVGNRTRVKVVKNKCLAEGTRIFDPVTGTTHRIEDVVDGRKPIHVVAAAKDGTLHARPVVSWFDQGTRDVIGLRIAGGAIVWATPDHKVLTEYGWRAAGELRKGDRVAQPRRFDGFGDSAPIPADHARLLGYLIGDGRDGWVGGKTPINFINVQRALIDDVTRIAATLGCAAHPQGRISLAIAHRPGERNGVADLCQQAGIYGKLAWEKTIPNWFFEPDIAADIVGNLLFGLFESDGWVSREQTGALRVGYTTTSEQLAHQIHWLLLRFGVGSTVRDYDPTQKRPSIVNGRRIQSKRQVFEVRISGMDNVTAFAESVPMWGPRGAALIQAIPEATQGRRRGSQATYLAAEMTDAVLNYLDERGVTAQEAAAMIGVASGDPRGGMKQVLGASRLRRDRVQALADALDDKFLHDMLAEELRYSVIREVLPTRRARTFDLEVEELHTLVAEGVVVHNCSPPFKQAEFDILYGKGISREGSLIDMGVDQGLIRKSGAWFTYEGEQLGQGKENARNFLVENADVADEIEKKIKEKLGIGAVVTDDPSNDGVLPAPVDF

[9] = biological target: T2, High affinity choline transporter 1; assay: human choline transporter blockers, potency – cell-based, 10-point CRC, membrane potential dye, dose response (AID 588401); type: functional;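 further: membrane potential dye fluorescence of choline-evoked depolarization via CHT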
[10] = biological target: Genome polyprotein (dengue virus type 2, UniProt P29990); assay: flavivirus cap methylation enzyme inhibition – biochemical, confirmation dose response, primary screen (AID 588689); type: functional
Genome polyprotein, sequence (P29990 2492-3391 limits assumed): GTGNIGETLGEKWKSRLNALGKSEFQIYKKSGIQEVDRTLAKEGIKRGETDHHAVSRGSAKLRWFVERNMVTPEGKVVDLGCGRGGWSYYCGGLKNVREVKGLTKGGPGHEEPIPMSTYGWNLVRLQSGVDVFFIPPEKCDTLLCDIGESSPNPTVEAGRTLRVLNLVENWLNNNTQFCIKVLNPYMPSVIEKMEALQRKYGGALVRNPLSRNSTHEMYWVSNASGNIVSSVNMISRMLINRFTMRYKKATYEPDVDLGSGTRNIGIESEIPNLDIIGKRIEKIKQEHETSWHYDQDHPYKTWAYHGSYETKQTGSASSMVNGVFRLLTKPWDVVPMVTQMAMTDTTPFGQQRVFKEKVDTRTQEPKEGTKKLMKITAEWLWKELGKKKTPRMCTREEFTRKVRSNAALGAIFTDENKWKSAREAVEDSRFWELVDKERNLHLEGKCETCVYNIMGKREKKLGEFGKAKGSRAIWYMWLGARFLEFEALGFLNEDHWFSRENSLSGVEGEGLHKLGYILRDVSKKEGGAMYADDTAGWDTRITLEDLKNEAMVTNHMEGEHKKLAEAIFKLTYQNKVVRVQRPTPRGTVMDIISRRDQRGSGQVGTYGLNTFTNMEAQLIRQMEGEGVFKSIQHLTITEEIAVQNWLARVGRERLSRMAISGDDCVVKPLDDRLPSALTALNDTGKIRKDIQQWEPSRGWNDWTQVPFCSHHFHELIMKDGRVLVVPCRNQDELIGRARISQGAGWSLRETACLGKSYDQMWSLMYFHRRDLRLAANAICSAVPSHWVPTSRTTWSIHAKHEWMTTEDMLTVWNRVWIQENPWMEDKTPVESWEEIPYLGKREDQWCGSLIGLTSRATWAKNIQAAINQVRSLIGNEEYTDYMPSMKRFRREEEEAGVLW

[11] = reduction of Shn3 3'UTR-driven luciferase in osteoblasts – cell-based, Clone20 osteoblasts, firefly luciferase, cherry-picked, dose response (AID 624132); type: functional;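 further: firefly luciferase luminescence from reporter carrying the Shn3 3'UTR in osteoblasts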
[12] = non-specific 3'UTR reporter inhibition in Clone20-Shn3RL – cell-based, Renilla luciferase, cherry-picked, counter-screen for Shn3 inhibitor project, dose response (AID 624133); type: functional
[13] = biological target: Hepatocyte nuclear factor 4-alpha (Homo sapiens, UniProt P41235); type: functional, cell-based;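 further: biochemical luminescence-based dose-response counterscreen measuring inhibition of HNF4 dimerization, run alongside a screen for blockers of ABHD5–perilipin-5 interaction; split luciferase complementation of HNF4 fusion proteins in cell lysate measuring dimerization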
Hepatocyte nuclear factor 4-alpha, sequence (P41235 whole entry, the tested form may be a part): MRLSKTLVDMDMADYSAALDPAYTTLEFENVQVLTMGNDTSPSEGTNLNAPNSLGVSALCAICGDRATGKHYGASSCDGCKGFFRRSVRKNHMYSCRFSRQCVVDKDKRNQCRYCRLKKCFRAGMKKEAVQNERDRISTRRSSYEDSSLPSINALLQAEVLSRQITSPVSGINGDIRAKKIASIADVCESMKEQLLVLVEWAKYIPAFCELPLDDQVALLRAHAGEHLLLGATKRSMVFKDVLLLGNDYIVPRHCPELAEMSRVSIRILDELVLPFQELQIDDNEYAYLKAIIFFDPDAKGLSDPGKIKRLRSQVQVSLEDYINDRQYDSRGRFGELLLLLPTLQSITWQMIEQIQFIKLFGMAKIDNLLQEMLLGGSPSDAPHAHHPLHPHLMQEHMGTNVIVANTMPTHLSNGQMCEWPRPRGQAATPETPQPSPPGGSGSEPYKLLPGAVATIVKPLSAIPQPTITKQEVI

[14] = biological target: T4, Sphingosine 1-phosphate receptor 2 (Homo sapiens, UniProt O95136); assay: Dose Response Cell Based Assay for Agonists of the S1P2 Receptor of Purchased Analogues. [Related pubchem assays: 729, 843, 854, 736 ]; type: functional
T4 sequence (O95136 whole entry): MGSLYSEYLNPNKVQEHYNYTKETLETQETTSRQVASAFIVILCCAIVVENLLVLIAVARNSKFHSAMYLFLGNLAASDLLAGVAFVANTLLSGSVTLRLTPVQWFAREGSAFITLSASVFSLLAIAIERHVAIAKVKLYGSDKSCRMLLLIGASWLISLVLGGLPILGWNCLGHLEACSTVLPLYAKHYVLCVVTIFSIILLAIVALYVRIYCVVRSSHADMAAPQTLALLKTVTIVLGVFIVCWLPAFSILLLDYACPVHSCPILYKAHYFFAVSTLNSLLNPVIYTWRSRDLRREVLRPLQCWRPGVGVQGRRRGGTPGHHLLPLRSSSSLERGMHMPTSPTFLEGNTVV

[15] = biological target: T5, Streptokinase A (Streptococcus pyogenes serotype M1, UniProt P10520); assay: Absorbance Microorganism-Based Dose Response Follow up to Identify Inhibitors of Streptokinase Expression. [Related pubchem assays: 1677 (Project Summary), 1915, 1914, 1902 (Retest at Dose), 1900 (Counter Screen), 1662 (Primary HTS)]; type: functional, Streptococcus pyogenes M1 GAS
T5 sequence (P10520 whole entry): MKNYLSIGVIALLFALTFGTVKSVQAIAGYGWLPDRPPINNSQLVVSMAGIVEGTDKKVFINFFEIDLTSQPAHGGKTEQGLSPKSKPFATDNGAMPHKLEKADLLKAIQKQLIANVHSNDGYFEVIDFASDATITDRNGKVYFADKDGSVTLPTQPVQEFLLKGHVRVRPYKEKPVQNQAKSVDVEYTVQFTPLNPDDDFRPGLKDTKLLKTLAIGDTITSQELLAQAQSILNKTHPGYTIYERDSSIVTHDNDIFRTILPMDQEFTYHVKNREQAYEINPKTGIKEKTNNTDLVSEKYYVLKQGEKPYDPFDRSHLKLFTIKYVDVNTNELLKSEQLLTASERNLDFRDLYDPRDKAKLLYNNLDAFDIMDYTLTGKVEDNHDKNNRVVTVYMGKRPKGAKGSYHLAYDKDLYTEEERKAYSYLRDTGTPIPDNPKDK

[16] = test system: Streptococcus; assay: GAS bacterial viability reduction – luminescence, BacTiter-Glo, strain UMAA2166, counter-screen for streptokinase expression inhibitor project, dose response (AID 2477); type: functional, organism-based
[17] = biological target: T4, Sphingosine 1-phosphate receptor 2; assay: Dose Response Cell Based Assay for Antagonists of the S1P2 Receptor. [Related pubchem assays: 856, 736 ]; type: functional
[18] = test system: BJ; assay: BJ-TERT fibroblast viability loss – cell-based, RAS-independent, luminescence, dose response (AID 1933); type: functional; conditions: Homo sapiens
[19] = test system: BJ; assay: cells; type: functional, cell-based; conditions: Homo sapiens
[20] = biological target: T6, Mannose-6-phosphate isomerase (Homo sapiens, UniProt P34949); assay: MPI enzyme activity inhibition – biochemical, fluorescence intensity, coupled assay, primary screen (AID 1209)
T6 sequence (P34949 whole entry): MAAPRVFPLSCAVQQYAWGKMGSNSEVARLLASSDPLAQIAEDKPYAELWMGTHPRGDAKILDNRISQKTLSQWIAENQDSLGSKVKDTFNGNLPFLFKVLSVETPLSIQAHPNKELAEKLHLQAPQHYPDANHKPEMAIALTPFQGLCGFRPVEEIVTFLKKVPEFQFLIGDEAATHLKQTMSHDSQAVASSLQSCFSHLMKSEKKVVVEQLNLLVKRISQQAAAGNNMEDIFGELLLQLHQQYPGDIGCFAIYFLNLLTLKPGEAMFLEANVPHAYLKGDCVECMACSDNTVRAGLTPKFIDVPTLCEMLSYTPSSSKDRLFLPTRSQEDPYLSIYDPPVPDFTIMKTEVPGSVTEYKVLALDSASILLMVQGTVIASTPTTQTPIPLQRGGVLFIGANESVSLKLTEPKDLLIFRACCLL

[21] = test system: BJ; assay: BJ-TERT-LT-ST fibroblast viability loss – cell-based, RAS-independent, luminescence, dose response (AID 1935); type: functional; conditions: Homo sapiens;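 further: BJ fibroblasts immortalized with TERT plus LT and ST oncogenes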
[22] = DRD fibroblast viability loss – cell-based, non-viral oncogenic, luminescence, dose response (AID 1934); type: functional; conditions: Homo sapiens
[23] = THP-1 cell cytotoxicity, dose response, cytotoxicity control for non-replicating M. tuberculosis project (AID 489025); type: functional
[24] = Vero E6 cell cytotoxicity, dose response, cytotoxicity control for non-replicating M. tuberculosis project, secondary assay (AID 492998); type: functional, VeroE6; conditions: Vero C1008
[25] = biological target: Nonstructural protein 1 (Influenza A virus, UniProt Q194T2); type: functional, Influenza A virus (A/California/07/2009(H1N1))
Nonstructural protein 1, sequence (Q194T2 whole entry): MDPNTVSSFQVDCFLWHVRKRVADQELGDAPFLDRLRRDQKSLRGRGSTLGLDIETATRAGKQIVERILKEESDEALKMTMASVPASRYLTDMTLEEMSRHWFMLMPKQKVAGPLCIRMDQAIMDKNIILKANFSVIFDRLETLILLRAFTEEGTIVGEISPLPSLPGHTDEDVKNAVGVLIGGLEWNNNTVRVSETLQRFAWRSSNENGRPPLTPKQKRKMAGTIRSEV

[26] = cells; type: functional
[27] = test system: BJ; assay: growth inhibition of engineered Ras-driven BJ cells – cell-based, alamar blue fluorescence, cherrypicked samples, dose response (AID 2631); type: functional; conditions: Homo sapiens;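 further: confirmatory dose-response assay in RAS-dependent BJ fibroblasts engineered with TERT, LT and ST, with cytotoxicity read by fluorescence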
[28] = test system: INS1; assay: INS-1E survival protection against cytokine death – cell-based, luminescence, retest, dose response (AID 449756); type: functional; conditions: Rattus norvegicus;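 further: cell death triggered by IL-1 beta plus TNF-alpha plus IFN-gamma mixture; protective hits raise ATP signal compared with cytokine alone wells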

CCc1nnc(NC(=O)c2nc(S(=O)(=O)Cc3cccc(C)c3)ncc2Cl)s1
EC50 [1]: > 120 µM (not active)
EC50 [2]: > 120 µM (not active)
EC50 [3]: > 120 µM (not active)
EC50 [4]: 16.8 µM (active)
AC50 [5]: 5.05 µM (active)
IC50 [6]: 2.4 µM (active)
CC50 [7]: 26.6 µM (active)
EC50 [8]: 4.37 µM (active)
IC50 [9]: 2.82 µM (active)
IC50 [10]: > 100 µM (active)
AC50 [11]: 2.51 µM (active)
AC50 [12]: 6.99 µM (active)
IC50 [13]: 5.05 µM (active)

Cc1cc(C(=O)CN(C)CC(=O)N(C)C)c(C)n1Cc1ccccc1
EC50 [14]: > 30 µM (not active)

COc1cccc(-c2nc(OC(C)C)c3ccccc3n2)c1
EC50 [15]: 8.2 µM (active)
EC50 [16]: 68.7 µM (active)

CC1=C(C)/C(=N\OS(=O)(=O)c2ccccc2)C=CC1=O
IC50 [17]: 4.33 µM (active)
EC50 [1]: > 120 µM (not active)
EC50 [2]: > 120 µM (not active)
EC50 [18]: 2.78 µM (inconclusive)
EC50 [3]: > 120 µM (not active)
EC50 [19]: 2.92 µM (active)
IC50 [20]: 6.61 µM (active)
EC50 [21]: 4.32 µM (inconclusive)
EC50 [22]: 4.57 µM (active)
CC50 [23]: 12.1 µM (active)
CC50 [24]: > 20 µM (active)
IC50 [25]: > 100 µM (active)
IC50 [26]: 11.4 µM (active)
AC50 [5]: 87.4 µM (active)
EC50 [27]: 0.557 µM (inconclusive)
EC50 [8]: 7.72 µM (active)
AC50 [28]: 1.92 µM (active)
